Laboratory results from US11413324B2, “Compositions and methods for treating peripheral nerve disease, disorders, and injuries” (University of Virginia Patent Foundation, priority 2017, dated 2022).
“Also recorded” adds a separate entry of the source. Structures can show the parent of a compound that is named as a salt.

What was measured:
peripheral olig2^+ OPCs = assay: Quantification of peripheral olig2+ OPCs at 3 dpf in drug-treated olig2:dsred larvae; format: in vivo, zebrafish; details: for peripherally migrated OPCs at 3 dpf after neurotransmitter receptor antagonist: compared to control; for number of peripheral olig2+ OPCs: 24 to 72 hpf
[1] = tested on: OPC migration through the MEP TZ; details: 10 μM, 24 to 72 hpf, 3 larvae imaged 55 to 72 hpf
Experimental: Embryos were anesthetized with 0.01% 3-aminobenzoic acid ester (Tricaine), immersed in 0.8% low-melting point agarose and mounted laterally in glass-bottomed 35 mm petri dishes (Electron Microscopy Sciences). After mounting, the petri dish was filled with egg water containing PTU and Tricaine. For some experiments, chemical compounds were also dissolved in the water. A 25× multi-immersion objective (NA=0.8), 40× oil objective (NA=1.4) and a 40× water objective (NA=1.1) mounted on a motorized Zeiss AxioObserver ZI microscope equipped with a Quorum WaveFX-XI spinning disc confocal system (Quorum Technologies Inc.) were used to capture images. Image processing was performed with MetaMorph and Photoshop to enhance brightness and contrast of images. The Fiji plugin MTrackJ was used to annotate time-lapse movies (Meijering et al., 2012).
In order to distinguish OPCs from motor neurons, we used embryos expressing olig2:dsred and sox10:eos, where sox10 regulatory elements drive expression of Eos in central and peripheral glia. […] We treated these embryos with 10 μM of CGS-15943 from 24 to 72 hpf and imaged 3 larvae (10 nerves total) from 55 to 72 hpf.

MEP glia = assay: Presence of MEP glia (sox10+/olig2+ cells, wif1 in situ hybridization) on motor nerves; format: in vivo, zebrafish; details: for percentage of motor nerves with sox10+/olig2+ MEP glia at the MEP TZ: 36 to 72 hpf, vs DMSO, p=0.14
Experimental: Larvae were fixed in 4% PFA at 4° C. overnight and stored in 100% methanol at −20° C. and processed for in situ RNA hybridization. Plasmids were linearized with appropriate restriction enzymes and cRNA preparation was carried out using Roche DIG-labeling reagents and RNA polymerases (NEB). We used a previously published probe for wif1 (Smith et al., 2014). After in situ hybridization, embryos were embedded in 1.5% agarose/30% sucrose and frozen in 2-methylbutane chilled by immersion in liquid nitrogen. We collected 20 μm transverse sections on microscope slides using a cryostat microtome and covered with 75% glycerol. Images were obtained using a Zeiss AxioObserver inverted microscope using a 40× oil immersion objective. All images were imported into Adobe Photoshop. Adjustments were limited to levels, contrast, and cropping.
We therefore sought to determine whether antagonizing the A2a AR lead to ectopic OPC migration simply by perturbing MEP glial development. MEP glia can be identified by the co-expression of sox10:eos and olig2:dsred as well as expression of wnt inhibitory factor 1 (wif1) (Smith et al., 2014).

perineurial glia (PG) = details: 1.25 μm CGS-15943, 36 to 55 hpf
Eos^+ cells = assay: Number of Eos+ cells (Schwann cells and MEP glia) per motor nerve in sox10:eos larvae; format: in vivo, zebrafish; details: 36 to 72 hpf, 72 hpf sox10:eos larvae, p=0.08
[2] = tested on: peripheral OPCs myelinating spinal motor axons; assay: gpr126 mutant peripheral neuropathy model: peripheral OPCs and myelination of spinal motor nerves; format: in vivo, zebrafish
Description: This led us to hypothesize that OPCs could be pharmacologically recruited onto peripheral nerves in order to myelinate them. […] However, in these studies, OPCs populated the nerve in the context of genetic mutations resulting in the death or absence of both SCs and MEP glia. Therefore, we wanted to determine if it was possible to recruit OPCs to myelinate peripheral motor nerves in a model more closely resembling human peripheral neuropathies, in which SCs are present, but fail to myelinate. To do this, we used zebrafish harboring a mutation in g protein coupled receptor 126 (gpr126), a model of peripheral neuropathy in which SCs ensheath, but fail to myelinate peripheral nerves (Monk et al., 2009). OLs are present in normal numbers in these mutants, and central myelination is completely normal (Monk et al., 2009).
Therefore, we tested whether treatment with the A2a AR antagonist would result in peripherally-migrated OPCs ensheathing peripheral spinal motor nerves in these mutants. […] We then performed in vivo, time-lapse imaging on nkx2.2a:megfp;olig2:dsred;gpr126^−/− mutants in order to visualize whether these peripheral OPCs initiated myelination of peripheral nerves. The transgene nkx2.2a:megfp is expressed by pre-myelinating OPCs and enables clear visualization of membrane structures (Kucenas et al., 2008a). No other cells in the spinal cord or at the MEP TZ express both nkx2.2a and olig2, so use of these transgenes allowed us to unambiguously identify membrane sheaths coming from OPCs. […] Thin OPC membrane processes extended toward peripheral motor axons and formed membrane sheaths around them (FIG. 6D). The timing of sheath initiation on peripheral axons coincided with sheath initiation within the spinal cord, and some peripheral sheaths stabilized and elongated during the course of the time-lapse (FIG. 6D). This time-lapse data rules out the possibility that SCH-58261 treatment stimulates SCs to myelinate the nerve, since nkx2.2a^+ OPC processes can be clearly seen ensheathing nerve segments.
To examine whether these membrane sheaths were in fact myelin, we treated gpr126 mutants from 36 to 72 hpf with SCH-58261 or DMSO, fixed larvae at 4 dpf, and labeled with an antibody specific to myelin basic protein (MBP) using immunohistochemistry (Kucenas et al., 2009). In mutants treated with DMSO, we observed MBP only on a short segment of the proximal nerve root (FIG. 6E), which is consistent with our previous data showing that differentiated MEP glia express MBP in this region (Smith et al., 2014). […] As further confirmation that peripheral OPCs myelinate spinal motor nerve roots following treatment with SCH-58261, we imaged gpr126^−/− larvae expressing the transgenes mbp:egfp and olig2:dsred from 72 to 86 hpf (n=3) (FIG. 6F). In these time-lapses, we observed olig2^+ OPCs beginning to ensheath peripheral nerves with mbp^+ membrane tubes. Out of 12 nerves imaged, OPCs migrated out of the spinal cord onto 4 nerves, and an additional 3 nerves had OPCs already present at the beginning of the time-lapse. Multiple EGFP^+ membrane tubes extended from single OPCs and ensheathed most of the nerve root on all 7 nerves with OPCs present. These long membrane tubes were consistent with the pattern of MBP antibody labeling on the nerves of SCH-58261-treated mutants (FIG. 6E). Both the MBP antibody and mbp:egfp labeling were closely associated with an olig2^+ cell body, providing further evidence that peripherally-migrated OPCs and not SCs, initiate myelination in gpr126 mutants treated with SCH-58261 (FIGS. 6D&E). From these experiments, we conclude that OPCs can be recruited onto peripheral motor nerves and initiate myelination, even in the presence of MEP glia and SCs.

peripheral olig2^+ cells = assay: Chemical screen of the LOPAC 1280 library: peripheral olig2+ cells scored in olig2:dsred larvae at 72 hpf; format: in vivo, zebrafish; details: 4 μM, 24 to 72 hpf, pilot experiment, positive control
larvae = assay: Toxicity, death or morphological defects of treated or injected larvae; details: 40 μM, 36 to 72 hpf, n=1 survivor
[3] = dose responses of selective A1, A2b, A3 antagonists
[4] = gpr126−/− mbp:egfp;olig2:dsred, imaged 72 to 86 hpf, 12 nerves imaged

SMILES: C[C@]12N[C@H](Cc3ccccc31)c1ccccc12 [MK-801, (5S,10R)-(+)-5-Methyl-10,11-dihydro-5H-dibenzo[a,d]cyclohepten-5,10-imine maleate]
- peripherally migrated OPCs at 3 dpf after neurotransmitter receptor antagonist (peripheral olig2^+ OPCs; 36 to 72 hpf, olig2:dsred): resulted in peripheral OPC migration

SMILES: Nc1nc2ccc(Cl)cc2c2nc(-c3ccco3)nn12 [CGS-15943, 9-Chloro-2-(2-furanyl)-[1,2,4]triazolo[1,5-c]quinazolin-5-amine]
- OPCs migrating through a single MEP TZ [1]: ≤ 2
- nerves on which OPC cell bodies migrated onto peripheral spinal motor nerves during imaging [1]: 6 out of 10
- nerves on which OPCs extend membrane processes through the MEP TZ [1]: 9 out of 10
- nerves with OPCs already present before 60 hpf [1]: 3 out of 10
- nerves with olig2+/sox10− motor neurons in the periphery [1]: 0 out of 10
- number of peripheral olig2+ OPCs (peripheral olig2^+ OPCs; doses of 1.25 and 20 μM, p<0.01): significant peripheral OPC migration
- wif1+ MEP glia (in situ hybridization) (MEP glia; 1.25 μM): observed wif1^+ MEP glia; also recorded: have wif1^+ MEP glia
- percentage of motor nerves with sox10+/olig2+ MEP glia at the MEP TZ (MEP glia; 1.25 μM): no differences
- PG extension from the spinal cord along the motor nerve (mean SEM) (perineurial glia (PG); 55 hpf larvae, 10 nerves per larva): 24.94±1.75 μm
- PG extension compared with DMSO-treated larvae (perineurial glia (PG); p=0.28): no difference in PG extension

SMILES: Cn1c(=O)c2[nH]c(C3CCCC3)nc2n(C)c1=O [CPT, 8-cyclopentyltheophylline]
- number of peripheral olig2+ OPCs (peripheral olig2^+ OPCs; [3]): did not observe peripheral OPCs

SMILES: Nc1nc2c(cnn2CCc2ccccc2)c2nc(-c3ccco3)nn12 [SCH-58261, 7-(2-phenylethyl)-5-amino-2-(2-furyl)-pyrazolo-[4,3-e]-1,2,4-triazolo[1,5-c]pyrimidine]
- number of peripheral olig2+ OPCs (peripheral olig2^+ OPCs; 10 μM, p<0.01 compared to DMSO): significant numbers of peripheral olig2^+ OPCs
- peripheral OPC migration by treatment window (peripheral olig2^+ OPCs; 10 μM, exposure beginning later than 54 hpf or ending earlier than 54 hpf, counted at 3 dpf): did not result in any peripheral OPC migration
- peripheral OPCs in WT or adora2aa−/− mutants (peripheral olig2^+ OPCs; SCH-58261 36 to 72 hpf, olig2:dsred, treatment p<0.0001, genotype p=0.53): observed peripheral OPCs in both genotypes
- percentage of motor nerves with sox10+/olig2+ MEP glia at the MEP TZ (MEP glia; 10 μM): no differences
- number of Eos+ cells per nerve compared with DMSO (Eos^+ cells): not significantly different
- olig2+ OPCs in the periphery of gpr126 mutants ([2]; 10 μM, 36 to 72 hpf, vs DMSO, p=0.009): significant number of olig2^+ OPCs in the periphery
- MBP antibody labeling on peripheral nerves ([2]; gpr126 mutants treated 36 to 72 hpf, fixed at 4 dpf): MBP labeling was present further distally along the nerve
- nerves with OPCs on which EGFP+ membrane tubes ensheathed most of the nerve root ([2]; gpr126−/− mbp:egfp;olig2:dsred, imaged 72 to 86 hpf): 7 nerves
- additional nerves with OPCs already present at the beginning of the time-lapse [2, 4]: 3 nerves
- nerves onto which OPCs migrated out of the spinal cord during time-lapse [2, 4]: 4 nerves
- ensheathment of peripheral motor axons by nkx2.2a+/olig2+ OPCs (time-lapse) ([2]; nkx2.2a:megfp;olig2:dsred;gpr126−/−, treated 36 to 72 hpf): initiate ensheathment of peripheral spinal motor axons

SMILES: COc1cc2ncnc(Nc3cccc(Cl)c3)c2cc1OC [AG1478]
- peripheral OPC migration (peripheral olig2^+ cells): robust peripheral OPC migration

SMILES: CCCn1c(=O)c2[nH]c(-c3ccc(OCC(=O)Nc4ccc(C#N)cc4)cc3)nc2n(CCC)c1=O [MRS-1754]
- number of peripheral olig2+ OPCs (peripheral olig2^+ OPCs; [3]): did not observe peripheral OPCs

SMILES: CCOC(=O)C1=C(C)NC(c2ccccc2)=C(C(=O)OCc2ccccc2)C1C#Cc1ccccc1 (stereo not drawn) [MRS-1191]
- number of peripheral olig2+ OPCs (peripheral olig2^+ OPCs; [3]): did not observe peripheral OPCs

SMILES: NS(=O)(=O)c1cccc2c1c([N+](=O)[O-])cc1[nH]c(=O)c(=O)[nH]c12 [NBQX, 2,3-Dioxo-6-nitro-1,2,3,4-tetrahydrobenzo[f]quinoxaline-7-sulfonamide]
- peripherally migrated OPCs at 3 dpf after neurotransmitter receptor antagonist (peripheral olig2^+ OPCs; 36 to 72 hpf, olig2:dsred): significant numbers of peripherally-migrated OPCs

SMILES: CC1(C)[C@@H](OC(=O)CCC(=O)O)CC[C@]2(C)[C@H]3C(=O)C=C4[C@@H]5C[C@@](C)(C(=O)O)CC[C@]5(C)CC[C@@]4(C)[C@]3(C)CC[C@@H]12 [carbenoxolone]
- peripherally-migrated OPCs, treatment alone versus combined with TeNT mRNA (peripheral olig2^+ OPCs; 10 μM, 36 to 72 hpf, counted at 72 hpf, p=0.04): more peripherally-migrated OPCs
- peripherally-migrated OPCs at 3 dpf (peripheral olig2^+ OPCs; 36 to 72 hpf, p<0.001 for 10 μM and p<0.0001 for 20 μM): significant numbers of peripherally-migrated OPCs
- larvae that died at this dose (larvae): 9
